Data from PMC11187126, “Structure and dynamics of the pyroglutamylated RF-amide peptide QRFP receptor GPR103” (Nature Communications, 2024).
Where two headings read alike, the source gives them in different places. No end group written: not given here.

Target: T1, GPR103 Y29N-termA (Homo sapiens, UniProt Q96P65, Y29A)
T1 construct: we used human full-length QRFPR-encoding plasmids; expressed in transfected cells; host or cells: HEK293 cells, pCAGGS vector
T1 sequence (Q96P65 1-431 Y29A): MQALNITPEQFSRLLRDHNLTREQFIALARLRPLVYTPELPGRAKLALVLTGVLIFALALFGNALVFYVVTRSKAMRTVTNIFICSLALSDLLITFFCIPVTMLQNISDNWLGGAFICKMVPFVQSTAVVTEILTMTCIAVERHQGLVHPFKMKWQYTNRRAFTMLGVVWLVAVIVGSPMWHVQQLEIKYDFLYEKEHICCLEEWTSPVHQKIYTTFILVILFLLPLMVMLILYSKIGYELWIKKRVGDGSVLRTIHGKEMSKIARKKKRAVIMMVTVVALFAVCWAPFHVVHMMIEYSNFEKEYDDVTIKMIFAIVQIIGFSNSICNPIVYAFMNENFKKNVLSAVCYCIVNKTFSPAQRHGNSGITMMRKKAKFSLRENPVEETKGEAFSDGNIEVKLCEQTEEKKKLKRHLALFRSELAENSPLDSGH
Experiment: TGFα shedding assay; Exp. level WT (1:20)
Assay type: cell-based

Question: TSGPLGNLAEELNGYSRKKGGFSFRF-NH2 [QRFP26] was tested. Which Emax (Exp. #1) did it give?
Answer: The Emax was 95.50 % WT.

Question: And the Emax (Exp. #2)?
Answer: The Emax was 84.01 % WT.

Question: What about the Emax (Exp. #3) of the same substance?
Answer: The Emax was 93.81 % WT.

Question: What about the Emax (mean, read-out: Emax) of the same substance?
Answer: Its Emax is 91.1%.

Question: What about the EC50 (n = 3) of the same substance?
Answer: Its EC50 is 0.269 µM.

Question: And the Emax (n = 3, read-out: Emax)?
Answer: The Emax was 94 ± 2.9%.
